Assays:
[1] = test system: Nippostrongylus brasiliensis; assay: In vitro assay 2: Nippostrongylus brasiliensis (NIPOBR), acetylcholine esterase readout; settings: adult worms, read-out: activity (reduction of AChE compared to negative control); for inhibition at 10 µg/mL: 10 μg/ml (10 ppm); for inhibition at 1 µg/mL: 1 μg/ml (1 ppm)
Description: In Vitro Assay 2: Nippostronqylus Brasiliensis (NIPOBR)
Adult Nippostrongylus brasiliensis were washed with saline buffer containing 100 U/ml penicillin, 0.1 mg/ml streptomycin and 2.5 μg/ml amphotericin B. Test compounds were dissolved in DMSO and worms were incubated in medium in a final concentration of 10 μg/ml (10 ppm) respectively 1 μg/ml (1 ppm). An aliquot of the medium was used to determine the acetylcholine esterase activity in comparison to a negative control. The principle of measuring acetylcholine esterase as readout for anthelmintic activity was described in Rapson et al (1986) and Rapson et al (1987).

[2] = test system: Dirofilaria immitis microfilariae; assay: In vitro assay 3: Dirofilaria immitis microfilariae (DIROIM L1), motility; settings: 72 h, reduction of motility vs negative control, 72 h incubation
[3] = test system: Dirofilaria immitis third-stage larvae; assay: In vitro assay 4: Dirofilaria immitis (DIROIM L4), motility of larvae; settings: 72 h
[4] = test system: Litomosoides sigmodontis third-stage larvae; assay: In vitro assay 7: Litomosoides sigmodontis L3 (LTMOSI), motility; settings: 72 h, reduction of motility vs negative control, 72 h incubation
Description: In Vitro Assay 7: Litomosoides Siqmodontis L3 (LTMOSI)
10 Litomosoides sigmodontis third-stage larvae, which were freshly isolated from the pleural cavity of an infected rodent, were added to wells of a microtitre plate containing a nutrient medium and the test compound in DMSO. Compounds were tested in concentration-response assay in duplicate. Larvae exposed to DMSO and no test compounds were used as negative controls. Larvae were evaluated after 72 h of incubation with the compound. Efficacy was determined as the reduction of motility in comparison to the negative control. Based on the evaluation of a wide concentration range, concentration-response curves as well as ECso-values were calculated.

[5] = log P by HPLC on reversed phase columns (Method L0; [a] acidic, [b] neutral range)
Description: Calibration was done with straight-chain alkan-2-ones (with 3 to 16 carbon atoms) with known log P values (measurement of log P values using retention times with linear interpolation between successive alkanones). Lambda-max-values were determined using UV-spectra from 200 nm to 400 nm and the peak values of the chromatographic signals.

C. elegans Slo-1a = C. elegans Slo-1a (Caenorhabditis elegans, UniProt Q95V25); assay: In vitro assay 1: C. elegans Slo-1a, action at a recombinant C. elegans CHO cell line (membrane potential measurement)
C. elegans Slo-1a, sequence (Q95V25 whole entry): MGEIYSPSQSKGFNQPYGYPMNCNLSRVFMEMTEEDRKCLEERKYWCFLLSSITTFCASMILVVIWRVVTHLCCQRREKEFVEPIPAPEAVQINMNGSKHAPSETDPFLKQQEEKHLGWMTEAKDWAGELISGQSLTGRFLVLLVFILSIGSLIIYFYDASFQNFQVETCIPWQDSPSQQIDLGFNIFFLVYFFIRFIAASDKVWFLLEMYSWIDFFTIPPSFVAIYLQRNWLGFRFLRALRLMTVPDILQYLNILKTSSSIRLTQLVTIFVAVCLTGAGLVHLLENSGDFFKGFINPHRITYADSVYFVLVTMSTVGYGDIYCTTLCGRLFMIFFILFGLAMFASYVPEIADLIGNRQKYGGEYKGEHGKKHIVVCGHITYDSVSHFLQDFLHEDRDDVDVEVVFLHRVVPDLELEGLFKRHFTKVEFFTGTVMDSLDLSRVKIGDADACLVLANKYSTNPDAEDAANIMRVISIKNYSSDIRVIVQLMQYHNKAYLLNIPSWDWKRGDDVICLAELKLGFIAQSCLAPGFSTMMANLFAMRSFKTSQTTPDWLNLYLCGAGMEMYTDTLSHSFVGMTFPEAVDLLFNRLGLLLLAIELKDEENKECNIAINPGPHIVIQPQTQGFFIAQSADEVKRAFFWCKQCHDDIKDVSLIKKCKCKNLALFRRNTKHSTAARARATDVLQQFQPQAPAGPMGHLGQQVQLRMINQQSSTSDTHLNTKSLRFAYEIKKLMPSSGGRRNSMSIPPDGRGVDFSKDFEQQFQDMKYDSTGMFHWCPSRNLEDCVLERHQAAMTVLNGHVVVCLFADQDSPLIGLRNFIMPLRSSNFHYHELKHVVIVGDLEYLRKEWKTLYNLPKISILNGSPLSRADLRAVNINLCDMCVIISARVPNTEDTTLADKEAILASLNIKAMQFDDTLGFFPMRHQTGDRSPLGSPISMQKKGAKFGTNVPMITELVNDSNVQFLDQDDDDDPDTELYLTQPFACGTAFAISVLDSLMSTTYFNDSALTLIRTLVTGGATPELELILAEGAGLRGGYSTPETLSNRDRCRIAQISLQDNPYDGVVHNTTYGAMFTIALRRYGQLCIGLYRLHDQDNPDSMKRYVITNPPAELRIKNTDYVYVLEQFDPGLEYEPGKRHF
Description: In Vitro Assay 1: C. Eleqans Slo-La—Action at a Recombinant C. elegans Cell Line
Cells were cultured at 37° C. and 5% CO2 in MEMalpha with Gutamax I (Invitrogen, Nr.: 32571), supplemented with 10% (v/v) heat inactivated fetal bovine serum (Invitrogen, Nr.: 10500), G418 (1 mg/ml, Invitrogen, Nr.: 10131). Cells were detached using Accutase (Sigma, Nr.: A6964).
Membrane Potential Measurements
Laboratory compound testing was performed on 384-well microtiter plates (MTPs, Greiner, Nr.: 781092). 8000 cells/well were plated onto 384-well MTPs and cultured for 20 to 24 hours at 37° C. and 5% CO2. After removal of the cell culture medium, the cells were washed once with tyrode (150 mM NaCl, 0.3 mM KCl, 2 mM CaCl2, 1 mM MgCl2, 0.8 mM NaH2PO4, 5 mM Glucose, 28 mM Hepes, pH 7.4) and then loaded with the voltage sensitive dye of the Membrane Potential Assay Kit diluted in tyrode for 1 h at room temperature.
After starting the measurement of fluorescence using a FLIPR Tetra (Molecular Devices, Exc. 510-545 nm, Emm. 565-625 nm), test compounds were added followed by the addition of KCl tyrode (final assay concentration: 70 mM KCl, 2 mM CaCl2, 1 mM MgCl2, 0.8 mM NaH2PO4, 5 mM Glucose, 28 mM Hepes, pH 7.4, including the voltage sensitive dye). The measurement was completed after 7 minutes.

Compound	inhibition at 10 µg/mL [1]	EC50 [2]	EC50 [3]	EC50 [4]	chromatographic logP [5]	EC50 (C. elegans Slo-1a)	inhibition at 1 µg/mL [1]
Cc1nn2c(C(C)C)c(C(=O)N[C@H]3CCOc4ccccc43)cnc2c1-c1c(F)cccc1F [Example 96]	> 80%	< 0.1 µg/mL	< 0.1 µg/mL	< 0.1 µg/mL	4.13	3.98 nM	
Cc1nn2c(C(C)C)c(C(=O)N[C@H]3CCc4ccccc43)cnc2c1-c1cc(Cl)c(F)c(Cl)c1 [Example 127]	> 80%	< 0.1 µg/mL	< 0.1 µg/mL	< 0.1 µg/mL	5.91	10 nM	
Cc1nn2c(C(C)C)c(C(=O)N[C@H]3CCCc4ccccc43)cnc2c1-c1cc(Cl)c(F)c(Cl)c1 [Example 128]	> 80%	< 0.1 µg/mL	< 0.1 µg/mL	< 0.1 µg/mL	6.26	12.6 nM	
Cc1nn2c(C(C)C)c(C(=O)N[C@H]3CCOc4ccccc43)cnc2c1-c1c(F)cccc1Cl [Example 130]	> 80%	< 0.1 µg/mL	< 0.1 µg/mL	< 0.1 µg/mL	4.44	3.98 nM	
Cc1nn2c(C(C)C)c(C(=O)N[C@H]3CCOc4ccccc43)cnc2c1-c1cccc(F)c1F [Example 136]	> 80%	< 0.1 µg/mL	< 0.1 µg/mL	< 0.1 µg/mL	4.34	6.31 nM	> 80%
Cc1nn2c(C(C)C)c(C(=O)N[C@H]3CCc4ccccc43)cnc2c1-c1cccc(F)c1F [Example 141]	> 80%	< 0.1 µg/mL	< 0.1 µg/mL	< 0.1 µg/mL	4.6	7.94 nM	
Cc1nn2c(C(C)C)c(C(=O)N[C@H]3CCOc4ccccc43)cnc2c1-c1cc(Cl)cc(Cl)c1 [Example 152]	> 80%	< 0.1 µg/mL	< 1 µg/mL	< 0.1 µg/mL	5.84	20 nM	> 80%
Cc1nn2c(C(C)C)c(C(=O)N[C@H]3CCOc4ccccc43)cnc2c1-c1ccc(F)c(F)c1F [Example 166]	> 80%	< 0.1 µg/mL	< 0.1 µg/mL	< 0.1 µg/mL	4.54	1.58 nM	
Cc1nn2c(C(C)C)c(C(=O)N[C@H]3CCOc4ccccc43)cnc2c1-c1cccc(Cl)c1Cl [Example 170]	> 80%	< 0.1 µg/mL	< 0.1 µg/mL	< 0.1 µg/mL	4.85	2 nM	
COc1cccc(-c2c(C)nn3c(C(C)C)c(C(=O)N[C@H]4CCOc5ccccc54)cnc23)c1F [Example 184]	> 80%	< 0.1 µg/mL	< 0.1 µg/mL	< 0.1 µg/mL	2.84	3.16 nM	
Cc1nn2c(C(C)C)c(C(=O)N[C@H]3CCOc4ccccc43)cnc2c1-c1cccc(OC(C)C)c1F [Example 188]	> 80%	< 1 µg/mL			4.79	12.6 nM	
Cc1nn2c(C(C)C)c(C(=O)N[C@H]3CCOc4ccccc43)cnc2c1-c1ccc(Br)cc1 [Example 206]	> 80%	< 1 µg/mL			5.02	12.6 nM	
Cc1nn2c(C(C)C)c(C(=O)N[C@H]3CCc4ccccc43)cnc2c1-c1ncc(Cl)cc1Cl [Example 209]	> 80%	< 0.1 µg/mL	< 0.1 µg/mL		4.51	1.26 nM	> 80%
CC(C)c1c(C(=O)N[C@H]2CCOc3ccccc32)cnc2c(-c3cc(Cl)cc(Cl)c3)c(S(C)(=O)=O)nn12 [Example 219]	> 80%	< 1 µg/mL			4.16	20 nM	
COc1ccc(-c2c(C)nn3c(C(C)C)c(C(=O)N[C@H]4CCOc5ccccc54)cnc23)cc1OC [Example 242]	> 80%	< 10 µg/mL			3.9	79.4 nM	
Cc1nn2c(C(C)C)c(C(=O)N[C@H]3CCOc4ccccc43)cnc2c1-c1cccc2c1OC(F)(F)O2 [Example 257]	> 80%	< 0.1 µg/mL			4.87	6.31 nM	
Cc1nn2c(C(C)C)c(C(=O)N[C@H]3CCOc4ccccc43)cnc2c1-c1ccc(F)c2c1OCO2 [Example 263]	> 80%	< 0.1 µg/mL	< 0.1 µg/mL		4.13	1.58 nM	> 80%
Cc1nn2c(C(C)C)c(C(=O)N[C@H]3CCCc4ccccc43)cnc2c1-c1cc(Cl)cc(Cl)c1F [Example 265]	> 80%	< 1 µg/mL			6.01	2.51 nM	

Source: patent publication US11001590B2, “Pyrazolopyrimidine derivatives” (BAYER ANIMAL HEALTH GMBH, priority 2016, dated 2021)
